In patent US9073955B2, “2-amino-4-arylthiazole compounds as TRPA1 antagonists” (Glenmark Pharmaceuticals, S.A., priority 2010, dated 2015):
Structures can show the parent of a compound that is named as a salt. Where two headings read alike, the source gives them in different places.

Target: T1, Human TRPA1 (Homo sapiens, UniProt O75762)
T1 construct: expressed in transfected cells; host or cells: CHO cells (grown with 400 μg/ml G-418)
Assay: 45Calcium uptake assay: inhibition of AITC induced cellular uptake of radioactive calcium
Format: cell-based
Details: human TRPA1 expressing CHO cells, AITC 30 μM
Procedure: The illustrative examples of the present invention were screened for TRPA1 activity according to a modified procedure described in (a) Tóth, A. et al. Life Sciences, 2003, 73, 487-498. ([…]. et al, Proc. Natl. Acad. Sci. U.S.A., 2007, 104, 13525-13530. The screening of the compounds can be carried out by other methods and procedures known to persons skilled in the art. Screening for TRPA1 Antagonist Using the ^45Calcium Uptake Assay: The inhibition of TRPA1 receptor activation was measured as inhibition of allyl isothiocyanate (AITC) induced cellular uptake of radioactive calcium. Test compounds were dissolved in 100% DMSO to prepare 10 mM stock and then diluted using plain medium with 0.1% BSA and 1.8 mM CaCl2 to get the desired concentration. The final concentration of DMSO in the reaction was 0.5% (v/v). Human TRPA1 expressing CHO cells were grown in F-12 DMEM medium with 10% FBS, 1% penicillin-streptomycin solution, and 400 μg/ml of G-418. Cells were seeded 24 h prior to the assay in 96 well plates so as to get 50,000 cells per well on the day of experiment. Cells were treated with the test compounds for 10 minutes followed by the addition of AITC at a final concentration of 30 μM and 5 μCi/ml^45Ca^+2 for 3 minutes. Cells were washed and lysed using a buffer containing 1% Triton X-100, 0.1% deoxycholate and 0.1% SDS. Radioactivity in the lysate was measured in a Packard TopCount after addition of liquid scintillant. (Toth et al, Life Sciences (2003) 73, 487-498; McNamara C R et al, Proceedings of the National Academy of Sciences, (2007) 104, 13525-13530). Concentration response curves were plotted as a % of maximal response obtained in the absence of test antagonist. IC50 values can be calculated from concentration response curve by nonlinear regression analysis using GraphPad PRISM software.

[1] = 1.0 μM, read-out: Percentage inhibition at 1.0 μM
[2] = 10.0 μM, read-out: Percentage inhibition at 10.0 μM
[3] = CHO, read-out: Percentage inhibition at 1.0 μM, 1.0 μM
[4] = CHO, read-out: Percentage inhibition at 10.0 μM, 10.0 μM

T1 sequence (O75762 whole entry): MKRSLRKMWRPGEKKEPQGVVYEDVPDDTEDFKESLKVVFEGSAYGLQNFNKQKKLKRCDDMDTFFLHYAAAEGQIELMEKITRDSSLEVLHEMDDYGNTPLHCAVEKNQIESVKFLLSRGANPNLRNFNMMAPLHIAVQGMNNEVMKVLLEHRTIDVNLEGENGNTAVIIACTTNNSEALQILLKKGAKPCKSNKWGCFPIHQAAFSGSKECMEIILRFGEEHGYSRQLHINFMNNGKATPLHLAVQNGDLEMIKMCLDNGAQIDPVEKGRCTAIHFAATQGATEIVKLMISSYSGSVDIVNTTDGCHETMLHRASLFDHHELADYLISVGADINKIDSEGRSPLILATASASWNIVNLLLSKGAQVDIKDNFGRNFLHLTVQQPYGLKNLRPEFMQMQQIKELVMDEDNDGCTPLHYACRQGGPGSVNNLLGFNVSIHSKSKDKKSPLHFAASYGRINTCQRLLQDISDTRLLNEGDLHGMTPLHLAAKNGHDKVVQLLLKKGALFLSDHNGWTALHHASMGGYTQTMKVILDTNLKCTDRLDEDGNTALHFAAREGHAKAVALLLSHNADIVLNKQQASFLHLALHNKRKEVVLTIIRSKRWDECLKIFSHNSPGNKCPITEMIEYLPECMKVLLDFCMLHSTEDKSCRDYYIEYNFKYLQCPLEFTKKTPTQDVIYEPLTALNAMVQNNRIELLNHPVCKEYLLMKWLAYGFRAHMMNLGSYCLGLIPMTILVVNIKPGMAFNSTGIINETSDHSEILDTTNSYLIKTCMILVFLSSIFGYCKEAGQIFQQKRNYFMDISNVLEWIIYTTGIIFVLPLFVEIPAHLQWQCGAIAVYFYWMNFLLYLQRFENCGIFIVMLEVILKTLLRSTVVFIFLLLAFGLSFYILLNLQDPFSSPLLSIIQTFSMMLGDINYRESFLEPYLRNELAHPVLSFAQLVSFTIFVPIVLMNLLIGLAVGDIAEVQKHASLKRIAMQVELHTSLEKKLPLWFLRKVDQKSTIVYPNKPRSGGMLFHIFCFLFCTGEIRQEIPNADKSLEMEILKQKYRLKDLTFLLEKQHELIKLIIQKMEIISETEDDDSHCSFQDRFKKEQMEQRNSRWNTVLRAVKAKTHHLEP

SMILES: Cn1c(=O)c2c(CC(=O)/N=c3\scc(-c4ccc(C(F)(F)F)c(F)c4)n3COC(=O)C3CCNCC3)csc2n(C)c1=O [Example 9, [2-{[(1,3-Dimethyl-2,4-dioxo-1,2,3,4-tetrahydrothieno[2,3-d]pyrimidin-5-yl)acetyl]imino}-4-[3-fluoro-4-(trifluoromethyl)phenyl]-1,3-thiazol-3(2H)-yl]methylpiperidine-4-carboxylate hydrochloride]
- inhibition at 1 µM [1]: 80.1%
- inhibition at 10 µM [2]: 94.8%
- IC50: 100 to 500 nM

SMILES: Cn1c(=O)c2c(CC(=O)/N=c3\scc(-c4ccc(C(F)(F)F)c(F)c4)n3COP(=O)(O)O)csc2n(C)c1=O [Example 12, Disodium[2-{[(1,3-dimethyl-2,4-dioxo-1,2,3,4-tetrahydrothieno[2,3-d]pyrimidin-5-yl)acetyl]imino}-4-[3-fluoro-4-(trifluoromethyl)phenyl]-1,3-thiazol-3 (2H)-yl]methyl phosphate]
- IC50: 100 to 500 nM

SMILES: Cc1sc2c(c1CC(=O)/N=c1\scc(-c3ccc(F)c(C(F)(F)F)c3F)n1COP(=O)(O)O)c(=O)n(C)c(=O)n2C [Example 16, Disodium(4-(2,4-difluoro-3-(trifluoromethyl)phenyl)-2-((2-(1,3,6-trimethyl-2,4-dioxo-1,2,3,4-tetrahydrothieno[2,3-d]pyrimidin-5-yl)acetyl)imino)thiazol-3(2H)-yl)methyl phosphate]
- inhibition at 1 µM [3]: 48.2%
- inhibition at 10 µM [4]: 92.7%
- IC50: > 500 nM

SMILES: Cn1c(=O)c2c(CC(=O)N=c3scc(-c4ccc(C(F)(F)F)c(F)c4F)n3COP(=O)(O)O)nsc2n(C)c1=O [Example 32, Disodium-(4-(2,3-difluoro-4-(trifluoromethyl)phenyl)-2-((2-(5,7-dimethyl-4,6-dioxo-4,5,6,7-tetrahydroisothiazolo[5,4-d]pyrimidin-3-yl)acetyl)imino)thiazol-3 (2H)-yl)methyl phosphate]
- inhibition at 1 µM [1]: 13.8%
- inhibition at 10 µM [2]: 81%
- IC50: > 500 nM

SMILES: Cc1sc2c(c1CC(=O)/N=c1\scc(-c3ccc(F)c(C(F)(F)F)c3F)n1COP(=O)(O)O)c(=O)n(C)c(=O)n2C [Example 15, 4-(2,4-Difluoro-3-(trifluoromethyl)phenyl)-2-((2-(1,3,6-trimethyl-2,4-dioxo-1,2,3,4-tetrahydrothieno[2,3-(1]pyrimidin-5-yl)acetyl)imino)thiazol-3 (2H)-yl)methyl dihydrogen phosphate]
- inhibition at 1 µM [1]: 81.2%
- inhibition at 10 µM [2]: 98.5%
- IC50: 100 to 500 nM

SMILES: CC[C@H](C)[C@H](N)C(=O)OCn1c(-c2ccc(OC(F)(F)F)c(Cl)c2)cs/c1=N\C(=O)Cc1c(C)oc2c1c(=O)n(C)c(=O)n2C [Example 22, [4-[3-Chloro-4-(trifluoromethoxy)phenyl]-2-{[(1,3,6-trimethyl-2,4-dioxo-1,2,3,4-tetrahydrofuro[2,3-d]pyrimidin-5-yl)acetyl]imino}-1,3-thiazol-3 (2H)-yl]methyl L-isoleucinate hydrochloride]
- inhibition at 1 µM [1]: 99.2%
- inhibition at 10 µM [2]: 99.6%
- IC50: 100 to 500 nM

SMILES: Cn1c(=O)c2c(CC(=O)/N=c3\scc(-c4ccc(C(F)(F)F)c(F)c4F)n3COP(=O)(O)O)nsc2n(C)c1=O [Example 31, [4-[2,3-Difluoro-4-(trifluoromethyl)phenyl]-2-{[(5,7-dimethyl-4,6-dioxo-4,5,6,7-tetrahydro[1,2]thiazolo[5,4-d]pyrimidin-3-yl)acetyl]imino}-1,3-thiazol-3 (2H)-yl]methyl dihydrogen phosphate]
- inhibition at 1 µM [1]: 60%
- inhibition at 10 µM [2]: 99.2%
- IC50: > 500 nM

SMILES: Cc1oc2c(c1CC(=O)/N=c1\scc(-c3ccc(OC(F)(F)F)c(Cl)c3)n1COC(=O)[C@@H](N)Cc1ccccc1)c(=O)n(C)c(=O)n2C [Example 24, 4-[3-Chloro-4-(trifluoromethoxy)phenyl]-2-{[(1,3,6-trimethyl-2,4-dioxo-1,2,3,4-tetrahydrofuro[2,3-d]pyrimidin-5-yl)acetyl]imino}-1,3-thiazol-3(2H)-yl]methyl L-phenylalaninate hydrochloride]
- inhibition at 1 µM [1]: 98.1%
- inhibition at 10 µM [2]: 99.8%
- IC50: < 100 nM

SMILES: Cc1oc2c(c1CC(=O)/N=c1\scc(-c3ccc(C(F)(F)F)c(F)c3F)n1COP(=O)(O)O)c(=O)n(C)c(=O)n2C [Example 27, 4-[2,3-Difluoro-4-(trifluoromethyl)phenyl]-2-{[(1,3,6-trimethyl-2,4-dioxo-1,2,3,4-tetrahydrofuro[2,3-d]pyrimidin-5-yl)acetyl]imino}-1,3-thiazol-3(2H)-yl]methyl dihydrogen phosphate]
- inhibition at 1 µM [1]: 93.8%
- inhibition at 10 µM [2]: 99.3%
- IC50: < 100 nM

SMILES: Cn1c(=O)c2c(CC(=O)/N=c3\scc(-c4ccc(F)c(C(F)(F)F)c4F)n3COC(=O)[C@@H]3CCCN3)csc2n(C)c1=O [Example 8, [4-[2,4-Difluoro-3-(trifluoromethyl)phenyl]-2-{[(1,3-dimethyl-2,4-dioxo-1,2,3,4-tetrahydrothieno[2,3-d]pyrimidin-5-yl)acetyl]imino}-1,3-thiazol-3(2H)-yl]methyl L-prolinate hydrochloride]
- inhibition at 1 µM [1]: 96.5%
- inhibition at 10 µM [2]: 98.3%
- IC50: < 100 nM

SMILES: CC(C)[C@H](N)C(=O)OCn1c(-c2ccc(F)c(C(F)(F)F)c2F)cs/c1=N\C(=O)Cc1csc2c1c(=O)n(C)c(=O)n2C [Example 5, [4-[2,4-Difluoro-3-(trifluoromethyl)phenyl]-2-{[(1,3-dimethyl-2,4-dioxo-1,2,3,4-tetrahydrothieno[2,3-d]pyrimidin-5-yl)acetyl]imino}-1,3-thiazol-3 (2H)-yl]methyl L-valinate hydrochloride]
- inhibition at 1 µM (CHO, 1.0 μM, read-out: Percentage inhibition at 1.0 μM): 98.6%
- inhibition at 10 µM (CHO, 10.0 μM, read-out: Percentage inhibition at 10.0 μM): 99.9%
- IC50: < 100 nM

SMILES: Cc1oc2c(c1CC(=O)/N=c1\scc(-c3ccc(OC(F)(F)F)c(Cl)c3)n1COC(=O)C(C)(C)C)c(=O)n(C)c(=O)n2C [Example 19, [4-[3-Chloro-4-(trifluoromethoxy)phenyl]-2-{[(1,3,6-trimethyl-2,4-dioxo-1,2,3,4-tetrahydrofuro[2,3-d]pyrimidin-5-yl)acetyl]imino}-1,3-thiazol-3 (2H)-yl]methyl 2,2-dimethylpropanoate]
- inhibition at 1 µM [1]: 70.3%
- inhibition at 10 µM [2]: 96.7%
- IC50: 100 to 500 nM

SMILES: CCc1sc2c(c1CC(=O)/N=c1\scc(-c3ccc(C(F)(F)F)c(F)c3)n1COP(=O)(O)O)c(=O)n(C)c(=O)n2C [Example 18, Disodium[2-{[(6-ethyl-1,3-dimethyl-2,4-dioxo-1,2,3,4-tetrahydrothieno[2,3-d]pyrimidin-5-yl)acetyl]imino}-4-[3-fluoro-4-(trifluoromethyl)phenyl]-1,3-thiazol-3(2H)-yl]methyl phosphate]
- inhibition at 1 µM [3]: 30%
- inhibition at 10 µM [4]: 88.7%

SMILES: CC(C)C(=O)OCn1c(-c2ccc(C(F)(F)F)c(F)c2)cs/c1=N\C(=O)Cc1csc2c1c(=O)n(C)c(=O)n2C [Example 1, [2-{[(1,3-Dimethyl-2,4-dioxo-1,2,3,4-tetrahydrothieno[2,3-d]pyrimidin-5-yl)acetyl]imino}-4-[3-fluoro-4-(trifluoromethyl)phenyl]-1,3-thiazol-3 (2H)-yl]methyl-2-methyl propanoate]
- inhibition at 1 µM [1]: 68.1%
- inhibition at 10 µM [2]: 90.3%
- IC50: 100 to 500 nM
